The source of these data is US12404285B2, “KRAS G12D proteolysis targeting chimeras” (PAQ Therapeutics Inc., priority 2022, dated 2025).

SMILES strings stand for the structures. Bounds are passed on as bounds.

For this experiment, the target named is T1, KRAS (G12D)-HiBit in AsPc-1-KRAS (G12D)-HiBit-KI cell (Homo sapiens, UniProt P01116, G12D).
T1 construct: host or cells: AsPc-1-KRAS (G12D)-HiBit-KI cells (knock-in line)
T1 sequence (P01116 1-188 isoform P01116-2 G12D): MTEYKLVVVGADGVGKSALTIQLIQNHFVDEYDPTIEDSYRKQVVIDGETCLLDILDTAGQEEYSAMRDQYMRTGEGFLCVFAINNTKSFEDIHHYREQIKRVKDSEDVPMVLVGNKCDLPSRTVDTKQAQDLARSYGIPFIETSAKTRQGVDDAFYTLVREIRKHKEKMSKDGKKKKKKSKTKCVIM
Description: G12D HiBit assay. Type of experiment: cell-based. Particulars: 24 hours compound treatment, absolute DC50, read-out: Average PHA DC50. Put shortly:
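Degradation of endogenous HiBiT-tagged KRAS G12D in AsPc-1 knock-in cells read after 24 h compound exposure (0.015-300 nM, 3-fold steps) by Nano-Glo HiBiT lytic luminescence. Signal normalised to DMSO-only cells; absolute DC50 derived by curve fitting.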
(With HiBiT, luminescence reflects the tagged protein that the partner subunit can reach.)
`C#Cc1c(F)ccc2cccc(-c3ncc4c(N5CC6CCC(C5)N6)nc(OC[C@@]56CCCN5[C@H](COC(=O)N5CC7(CC(CCc8cccc9c8n(C)c(=O)n9C8CCC(=O)NC8=O)C7)C5)CC6)nc4c3F)c12` (stereo partly drawn) [Compound 61, [(3S,8S)-8-[[4-(3,8-diazabicyclo[3.2.1]octan-3-yl)-7-(8-ethynyl-7-fluoro-1-naphthyl)-8-fluoro-pyrido[4,3-d]pyrimidin-2-yl]oxymethyl]-1,2,3,5,6,7-hexahydropyrrolizin-3-yl]methyl 6-[2-[1-(2,6-dioxo-3-piperidyl)-3-methyl-2-oxo-benzimidazol-4-yl]ethyl]-2-azaspiro[3.3]heptane-2-carboxylate]: the DC50 lay in the range of 0.1 to 0.3 µM.

For `C#Cc1c(F)ccc2cccc(-c3ncc4c(N5CC6CCC(C5)N6)nc(OC[C@@]56CCCN5[C@H](COC(=O)N5CCN(C7CCN(Cc8cccc9c8n(C)c(=O)n9C8CCC(=O)NC8=O)CC7)CC5)CC6)nc4c3F)c12` (stereo partly drawn) [Compound 64, [(3S,8S)-8-[[4-(3,8-Diazabicyclo[3.2.1]octan-3-yl)-7-(8-ethynyl-7-fluoro-1-naphthyl)-8-fluoro-pyrido[4,3-d]pyrimidin-2-yl]oxymethyl]-1,2,3,5,6,7-hexahydropyrrolizin-3-yl]methyl 4-[1-[[1-(2,6-dioxo-3-piperidyl)-3-methyl-2-oxo-benzimidazol-4-yl]methyl]-4-piperidyl]piperazine-1-carboxylate], the DC50 is < 0.1 µM. Regarding `C#Cc1c(F)ccc2cccc(-c3ncc4c(N5CC6CCC(C5)N6)nc(OC[C@@]56CCCN5[C@H](COC(=O)N5CCC(CNC7CCN(Cc8cccc9c8n(C)c(=O)n9C8CCC(=O)NC8=O)CC7)CC5)CC6)nc4c3F)c12` (stereo partly drawn) [Compound 145, [(3S,8S)-8-[[4-(3,8-Diazabicyclo[3.2.1]octan-3-yl)-7-(8-ethynyl-7-fluoro-1-naphthyl)-8-fluoro-pyrido[4,3-d]pyrimidin-2-yl]oxymethyl]-1,2,3,5,6,7-hexahydropyrrolizin-3-yl]methyl 4-[[[1-[[1-(2,6-dioxo-3-piperidyl)-3-methyl-2-oxo-benzimidazol-4-yl]methyl]-4-piperidyl]amino]methyl]piperidine-1-carboxylate], the DC50 was < 0.1 µM. In the case of `C#Cc1c(F)ccc2cccc(-c3ncc4c(N5CC6CCC(C5)N6)nc(OC[C@@]56CCCN5[C@H](COC(=O)N5CCC(CN7CCC(c8cccc9c8n(C)c(=O)n9C8CCC(=O)NC8=O)CC7)CC5)CC6)nc4c3F)c12` (stereo partly drawn) [Compound 38, [(3S,8S)-8-[[4-(3,8-Diazabicyclo[3.2.1]octan-3-yl)-7-(8-ethynyl-7-fluoro-1-naphthyl)-8-fluoro-pyrido[4,3-d]pyrimidin-2-yl]oxymethyl]-1,2,3,5,6,7-hexahydropyrrolizin-3-yl]methyl4-[[4-[1-(2,6-dioxo-3-piperidyl)-3-methyl-2-oxo-benzimidazol-4-yl]-1-piperidyl]methyl]piperidine-1-carboxylate] it was < 0.1 µM; in that of `C#Cc1c(F)ccc2cccc(-c3ncc4c(N5CC6CCC(C5)N6)nc(OC[C@@]56CCCN5[C@H](COC(=O)N5CCC(OCCCCCCCc7cccc8c7n(C)c(=O)n8C7CCC(=O)NC7=O)CC5)CC6)nc4c3F)c12` (stereo partly drawn) [Compound 59], < 0.1 µM.

As to `C#Cc1c(F)ccc2cccc(-c3ncc4c(N5CC6CCC(C5)N6)nc(OC[C@@]56CCCN5[C@H](COC(=O)N5CCC(OCCCCCCc7cccc8c7n(C)c(=O)n8C7CCC(=O)NC7=O)CC5)CC6)nc4c3F)c12` (stereo partly drawn) [Compound 58, [(3S,8S)-8-[[4-(3,8-Diazabicyclo[3.2.1]octan-3-yl)-7-(8-ethynyl-7-fluoro-1-naphthyl)-8-fluoro-pyrido[4,3-d]pyrimidin-2-yl]oxymethyl]-1,2,3,5,6,7-hexahydropyrrolizin-3-yl]methyl 4-[6-[1-(2,6-dioxo-3-piperidyl)-3-methyl-2-oxo-benzimidazol-4-yl]hexoxy]piperidine-1-carboxylate], the DC50 was < 0.1 µM.
